According to patent US20180015065A1, “METHODS OF TREATING UREA CYCLE DISORDERS” (Horizon Therapeutics, LLC, priority 2013, published 2018):
Where “and” joins values, the source holds several entries; their conditions need not be identical. Identical values can stand only once. Like-named read-outs stand apart in the source and are kept apart here.

How the values were obtained:
[1] = phase 1; dosages equivalent to the highest approved NaPBA dosage of 20 g/day; cited from earlier work
[2] = Spot urinary PAGN level by BSA group, subjects 2 years of age and older; format: in vivo, human
Description: (§1) Subjects in Example 4 from all UCD studies and the healthy volunteer study (HPN-100-010) who were 2 years of age and older were divided into two groups based on their BSA: less than or equal to 1.3 m^2 (≦1.3 m^2) and greater than 1.3 m^2 (>1.3 m^2). Spot urine samples were collected from subjects at 24 hours (i.e., after an overnight fast), and urinary PAGN levels were measured.

[3] = Spot urinary PAGN level by dose category, HPN-100-012 safety extension; format: in vivo, human; settings: pediatric subjects under 6 years, spot urine at 0 hours after overnight fast
Description: Pediatric subjects under 6 years of age from the HPN-100-012 safety extension study were divided into three dosing groups: less than 6 mL/m^2, 6-10 mL/m^2, and greater than 10 mL/m^2. Spot urine samples were collected from subjects at 0 hours (i.e., after an overnight fast), and urinary PAGN levels were measured.

[4] = Spot urinary PAGN level by age group, all studies; format: in vivo, human; settings: spot urine after overnight fast
Description: Subjects from all studies who had spot urine samples were divided into three age groups: less than 2 years of age; 2 to less than 6 years of age; and 6 years of age and older. Spot urine samples were collected from subjects after an overnight fast, and urinary PAGN levels were measured.

[5] = system: ammonia; settings: cited from earlier work
[6] = Spot urinary PAGN level by BSA group, all UCD studies and healthy volunteer study HPN-100-010; format: in vivo, human; settings: spot urine at 24 hours after overnight fast
Description: as §1, with “Subjects” for “Subjects in Example 4”, “(HPN-100-010)” for “(HPN-100-010) who were 2 years of age and older”

[7] = BSA > 1.3 m^2, spot urine at 24 hours after overnight fast
[8] = BSA ≦ 1.3 m^2, spot urine at 24 hours after overnight fast

O=C(CCCc1ccccc1)OCC(COC(=O)CCCc1ccccc1)OC(=O)CCCc1ccccc1 [HPN-100, glyceryl tri-[4-phenylbutyrate]]
Safety of administration [1]: established the safety | U-PAGN, 5th percentile [2, 7]: 3379.24 µg/mL | U-PAGN, 10th percentile [2, 7]: 4078.79 µg/mL | U-PAGN, 25th percentile [2, 7]: 5259 µg/mL and 5259.01 µg/mL | U-PAGN, 75th percentile [2, 7]: 11916.08 µg/mL | U-PAGN, 90th percentile [2, 7]: 15993.51 µg/mL | U-PAGN, 95th percentile [2, 7]: 20320.32 µg/mL | U-PAGN, maximum [2, 7]: 30304.04 µg/mL | U-PAGN, mean [2, 7]: 9058.68 µg/mL | U-PAGN, median [2, 7]: 7748.84 µg/mL | U-PAGN, minimum [2, 7]: 1157.49 µg/mL | U-PAGN, 5th percentile [2, 8]: 621.6 µg/mL | U-PAGN, 10th percentile [2, 8]: 3479.50 µg/mL | U-PAGN, 25th percentile [2, 8]: 7412 µg/mL and 7412.48 µg/mL | U-PAGN, 75th percentile [2, 8]: 23635.08 µg/mL | U-PAGN, 90th percentile [2, 8]: 29835.07 µg/mL | U-PAGN, 95th percentile [2, 8]: 33943.83 µg/mL | U-PAGN, maximum [2, 8]: 43372.15 µg/mL | U-PAGN, mean [2, 8]: 16186.11 µg/mL | U-PAGN, median [2, 8]: 15869.85 µg/mL | U-PAGN, minimum [2, 8]: 119.5 µg/mL | Urinary PAGN, 10th percentile ([3]; dose 6-10 mL/m^2): 1288 µg/mL | Urinary PAGN, 25th percentile ([3]; dose 6-10 mL/m^2): 3053 µg/mL | Urinary PAGN, 75th percentile ([3]; dose 6-10 mL/m^2): 20796 µg/mL | Urinary PAGN, 90th percentile ([3]; dose 6-10 mL/m^2): 24429 µg/mL | Urinary PAGN, mean ([3]; dose 6-10 mL/m^2): 12313 µg/mL | Urinary PAGN, median ([3]; dose 6-10 mL/m^2): 12144 µg/mL | Urinary PAGN, 10th percentile ([3]; dose <6 mL/m^2): 643 µg/mL | Urinary PAGN, 25th percentile ([3]; dose <6 mL/m^2): 1256 µg/mL | Urinary PAGN, 75th percentile ([3]; dose <6 mL/m^2): 14290 µg/mL | Urinary PAGN, 90th percentile ([3]; dose <6 mL/m^2): 20797 µg/mL | Urinary PAGN, mean ([3]; dose <6 mL/m^2): 8353 µg/mL | Urinary PAGN, median ([3]; dose <6 mL/m^2): 3298 µg/mL | Urinary PAGN, 10th percentile ([3]; dose >10 mL/m^2): 264 µg/mL | Urinary PAGN, 25th percentile ([3]; dose >10 mL/m^2): 6990 µg/mL | Urinary PAGN, 75th percentile ([3]; dose >10 mL/m^2): 26247 µg/mL | Urinary PAGN, 90th percentile ([3]; dose >10 mL/m^2): 28084 µg/mL | Urinary PAGN, mean ([3]; dose >10 mL/m^2): 16842 µg/mL | Urinary PAGN, median ([3]; dose >10 mL/m^2): 17089 µg/mL | U-PAGN, 10th percentile ([4]; age group 2-<6 years): 1717 µg/mL | U-PAGN, 25th percentile ([4]; age group 2-<6 years): 5146 µg/mL | U-PAGN, 75th percentile ([4]; age group 2-<6 years): 20603 µg/mL | U-PAGN, 90th percentile ([4]; age group 2-<6 years): 27728 µg/mL | U-PAGN, maximum ([4]; age group 2-<6 years): 43372 µg/mL | U-PAGN, mean ([4]; age group 2-<6 years): 13420 µg/mL | U-PAGN, median ([4]; age group 2-<6 years): 12114 µg/mL | U-PAGN, minimum ([4]; age group 2-<6 years): 119 µg/mL | U-PAGN, 10th percentile ([4]; age group <2 years): 3265 µg/mL | U-PAGN, 25th percentile ([4]; age group <2 years): 8996 µg/mL | U-PAGN, 75th percentile ([4]; age group <2 years): 25019 µg/mL | U-PAGN, 90th percentile ([4]; age group <2 years): 28028 µg/mL | U-PAGN, maximum ([4]; age group <2 years): 44298 µg/mL | U-PAGN, mean ([4]; age group <2 years): 17330 µg/mL | U-PAGN, median ([4]; age group <2 years): 17229 µg/mL | U-PAGN, minimum ([4]; age group <2 years): 348 µg/mL | U-PAGN, 10th percentile ([4]; age group ≧6 years): 1564 µg/mL | U-PAGN, 25th percentile ([4]; age group ≧6 years): 4032 µg/mL | U-PAGN, 75th percentile ([4]; age group ≧6 years): 13846 µg/mL | U-PAGN, 90th percentile ([4]; age group ≧6 years): 21633 µg/mL | U-PAGN, maximum ([4]; age group ≧6 years): 60960 µg/mL | U-PAGN, mean ([4]; age group ≧6 years): 10103 µg/mL | U-PAGN, median ([4]; age group ≧6 years): 7185 µg/mL | U-PAGN, minimum ([4]; age group ≧6 years): 642 µg/mL | Mean ammonia values ([5]; HPN-100-012 safety extension, pediatric UCD patients under six years): within normal limits | Ammonia control compared with NaPBA ([5]; phase 2 HPN-100-005, 11 pediatric UCD patients age six years and up, PBA equimolar dosage): at least equivalent to NaPBA | Ammonia control compared with NaPBA ([5]; phase 2 studies overall, equivalent dosages): at least equal to NaPBA | Ammonia control compared with NaPBA ([5]; phase 3 HPN-100-006, 45 adult UCD patients, PBA equivalent dosage): non-inferior to NaPBA | Mean ammonia levels ([5]; phase 3 extended dosing HPN-100-007 and HPN-100-005 safety extension, adult and pediatric UCD subjects): within normal limit | U-PAGN, 5th percentile ([6]; BSA > 1.3 m^2): 3379.24 µg/mL | U-PAGN, 10th percentile ([6]; BSA > 1.3 m^2): 4078.79 µg/mL | U-PAGN, 25th percentile ([6]; BSA > 1.3 m^2): 5259 µg/mL and 5259.01 µg/mL | U-PAGN, 50th percentile ([6]; BSA > 1.3 m^2): 7748.84 µg/mL | U-PAGN, 75th percentile ([6]; BSA > 1.3 m^2): 11916.08 µg/mL | U-PAGN, 90th percentile ([6]; BSA > 1.3 m^2): 15993.51 µg/mL | U-PAGN, 95th percentile ([6]; BSA > 1.3 m^2): 20320.32 µg/mL | U-PAGN, maximum ([6]; BSA > 1.3 m^2): 30304.04 µg/mL | U-PAGN, mean ([6]; BSA > 1.3 m^2): 9058.68 µg/mL | U-PAGN, minimum ([6]; BSA > 1.3 m^2): 1157.49 µg/mL | U-PAGN, 5th percentile ([6]; BSA ≦ 1.3 m^2): 1061.84 µg/mL | U-PAGN, 10th percentile ([6]; BSA ≦ 1.3 m^2): 3645.97 µg/mL | U-PAGN, 25th percentile ([6]; BSA ≦ 1.3 m^2): 8390 µg/mL and 8390.07 µg/mL | U-PAGN, 50th percentile ([6]; BSA ≦ 1.3 m^2): 17075.13 µg/mL | U-PAGN, 75th percentile ([6]; BSA ≦ 1.3 m^2): 25465.73 µg/mL | U-PAGN, 90th percentile ([6]; BSA ≦ 1.3 m^2): 30830 µg/mL | U-PAGN, 95th percentile ([6]; BSA ≦ 1.3 m^2): 35516.41 µg/mL | U-PAGN, maximum ([6]; BSA ≦ 1.3 m^2): 44298.26 µg/mL | U-PAGN, mean ([6]; BSA ≦ 1.3 m^2): 17547.48 µg/mL | U-PAGN, minimum ([6]; BSA ≦ 1.3 m^2): 119.47 µg/mL
